Source: EP4813381A1, “PHARMACEUTICAL USE OF GUAIANE SESQUITERPENE DERIVATIVE” (Nanjing University Of Chinese Medicine, priority 2023, dated 2025)

Tested on: MDSCs and T cells
Test: T cell proliferation in a co-culture model of MDSCs and T cells (flow cytometry)
Type: cell-based, mice
Settings: MDSCs treated with 1 µM compound for 12 h, 48 h co-culture with T cells (1:1), compared to the control group
Experimental: Under sterile conditions, the tibia was removed, both ends of the bone were cut, and bone marrow was repeatedly flushed into a 15 mL centrifuge tube using a 1 mL syringe filled with culture medium. Centrifuge at 1600 rpm for 5 min to collect bone marrow cells. […] The spleen cell suspension was then transferred into a 15 mL centrifuge tube. Centrifuge at 1600 rpm for 5 min to collect T cells. Wash twice with 1×PBS. Resuspend the centrifuged T cells in 1 mL PBS and add 1 mL of 10 µM CFDA-SE solution. Incubate at room temperature for 8 min. […] After drug administration, collect MDSC cells into centrifuge tubes. Centrifuge at 1600 rpm for 5 min, remove supernatant, resuspend in 1 mL fresh medium, and plate. Add 1 mL stimulated activated T cells (1:1 ratio) for 48 h co-culture. After incubation, collect cells into centrifuge tubes, wash twice with PBS, and incubate with Fc antibody at room temperature in the dark for 10 min. Add CD3-labeled flow cytometry antibody and incubate at 4 °C in the dark for 30 min. After incubation, wash cells with PBS, resuspend in 300 µL PBS, and analyze by flow cytometry.

C=C1C(=O)O[C@H]2[C@H]1CCC(C)=C1CC[C@@](C)(OC(=O)N3CCOCC3)[C@@H]12 [compound 87]
T-cell proliferation rate (%): +++ (T-cell proliferation rate >40% compared to the control group)

C=C1C(=O)O[C@H]2[C@H]1CCC(C)=C1CC[C@@](C)(OC(=O)N3CCN(C)CC3)[C@@H]12 [compound 85]
T-cell proliferation rate (%): + (T-cell proliferation rate within the 0-20% range compared to the control group)

C=C1C(=O)O[C@H]2[C@H]1CCC(C)=C1CC[C@@](C)(OC(=O)N3CCC(N4CCOCC4)CC3)[C@@H]12 [compound 94]
T-cell proliferation rate (%): ++ (T-cell proliferation rate within the 20-40% range compared to the control group)

C=C1C(=O)O[C@H]2[C@H]1CCC(C)=C1CC[C@@](C)(OC(=O)N(CC)CC)[C@@H]12 [compound 81]
T-cell proliferation rate (%): ++ (T-cell proliferation rate within the 20-40% range compared to the control group)

C=C1C(=O)O[C@H]2[C@H]1CCC(C)=C1CC[C@@](C)(OC(=O)NCc3ccccc3)[C@@H]12 [compound 79]
T-cell proliferation rate (%): ++ (T-cell proliferation rate within the 20-40% range compared to the control group)

C=C1C(=O)O[C@H]2[C@H]1CCC(C)=C1CC[C@@](C)(OC(=O)NCC(F)F)[C@@H]12 [compound 89]
T-cell proliferation rate (%): ++ (T-cell proliferation rate within the 20-40% range compared to the control group)

C=C1C(=O)O[C@H]2[C@H]1CCC(C)=C1CC[C@@](C)(OC(=O)N3CCN(CC)CC3)[C@@H]12 [compound 86]
T-cell proliferation rate (%): ++ (T-cell proliferation rate within the 20-40% range compared to the control group)

CC1=C2CC[C@@](C)(OC(=O)N3CCCCC3)[C@@H]2[C@H]2OC(=O)[C@@H](CN3CCCC3)[C@@H]2CC1 [compound 96]
T-cell proliferation rate (%): + (T-cell proliferation rate within the 0-20% range compared to the control group)

C=C1C(=O)O[C@H]2[C@H]1CCC(C)=C1CC[C@@](C)(OC(=O)NCCCN3CCOCC3)[C@@H]12 [compound 92]
T-cell proliferation rate (%): ++ (T-cell proliferation rate within the 20-40% range compared to the control group)

C=C1C(=O)O[C@H]2[C@H]1CCC(C)=C1CC[C@@](C)(OC(=O)N(CC)CCC)[C@@H]12 [compound 91]
T-cell proliferation rate (%): ++ (T-cell proliferation rate within the 20-40% range compared to the control group)

CCC(=O)O[C@]1(C)CC[C@@]23C[C@]2(C)CC[C@@H]2[C@H](CC(=O)[C@H]2CN(C)C)[C@H]31 [compound 63]
T-cell proliferation rate (%): + (T-cell proliferation rate within the 0-20% range compared to the control group)

C=C1C(=O)O[C@H]2[C@H]1CCC(C)=C1CC[C@@](C)(OC(=O)NCCOC)[C@@H]12 [compound 74]
T-cell proliferation rate (%): +++ (T-cell proliferation rate >40% compared to the control group)

C=C1C(=O)O[C@H]2[C@H]1CCC(C)=C1CC[C@@](C)(OC(=O)N3CCC(C)CC3)[C@@H]12 [compound 84]
T-cell proliferation rate (%): ++ (T-cell proliferation rate within the 20-40% range compared to the control group)

C=C1C(=O)O[C@H]2[C@H]1CCC(C)=C1CC[C@@](C)(OC(=O)NC)[C@@H]12 [compound 64]
T-cell proliferation rate (%): +++ (T-cell proliferation rate >40% compared to the control group)

C=C1C(=O)O[C@H]2[C@H]1CCC(C)=C1CC[C@@](C)(OC(=O)NCCN3CCN(C)CC3)[C@@H]12 [compound 95]
T-cell proliferation rate (%): ++ (T-cell proliferation rate within the 20-40% range compared to the control group)

CC(C)(C)OC(=O)N1CCN(C[C@@H]2C(=O)O[C@H]3[C@H]2CC[C@@]2(C)C[C@]24CC[C@@](C)(O)[C@H]34)CC1 [compound 44]
T-cell proliferation rate (%): + (T-cell proliferation rate within the 0-20% range compared to the control group)

C=C1C(=O)O[C@H]2[C@H]1CCC(C)=C1CC[C@@](C)(OC(=O)NCCCO)[C@@H]12 [compound 72]
T-cell proliferation rate (%): ++ (T-cell proliferation rate within the 20-40% range compared to the control group)

CN(C)C[C@@H]1C(=O)O[C@H]2[C@H]1CC[C@@]1(C)C[C@]13CC[C@@](C)(O)[C@H]23 [compound 2]
T-cell proliferation rate (%): ++ (T-cell proliferation rate within the 20-40% range compared to the control group)

C=C1C(=O)O[C@H]2[C@H]1CCC(C)=C1CC[C@@](C)(OC(=O)N3CCCC3)[C@@H]12 [compound 82]
T-cell proliferation rate (%): + (T-cell proliferation rate within the 0-20% range compared to the control group)

C=C1C(=O)O[C@H]2[C@H]1CCC(C)=C1CC[C@@](C)(OC(=O)N(C)CCC)[C@@H]12 [compound 90]
T-cell proliferation rate (%): ++ (T-cell proliferation rate within the 20-40% range compared to the control group)

C=C1C(=O)O[C@H]2[C@H]1CCC(C)=C1CC[C@@](C)(OC(=O)NCCCOC)[C@@H]12 [compound 75]
T-cell proliferation rate (%): ++ (T-cell proliferation rate within the 20-40% range compared to the control group)

C=C1C(=O)O[C@H]2[C@H]1CCC(C)=C1CC[C@@](C)(OC(=O)NC3CC3)[C@@H]12 [compound 70]
T-cell proliferation rate (%): + (T-cell proliferation rate within the 0-20% range compared to the control group)

C=C1C(=O)O[C@H]2[C@H]1CCC(C)=C1CC[C@@](C)(OC(=O)NCCCC)[C@@H]12 [compound 67]
T-cell proliferation rate (%): ++ (T-cell proliferation rate within the 20-40% range compared to the control group)

C=C1C(=O)O[C@H]2[C@H]1CCC(C)=C1CC[C@@](C)(OC(=O)NCC(C)C)[C@@H]12 [compound 88]
T-cell proliferation rate (%): ++ (T-cell proliferation rate within the 20-40% range compared to the control group)

C=C1C(=O)O[C@H]2[C@H]1CCC(C)=C1CC[C@@](C)(OC(=O)NCCC)[C@@H]12 [compound 66]
T-cell proliferation rate (%): + (T-cell proliferation rate within the 0-20% range compared to the control group)

CC1=C2CC[C@@](C)(OC(=O)N3CCCCC3)[C@@H]2[C@H]2OC(=O)[C@@H](CN(C)C)[C@@H]2CC1 [compound 97]
T-cell proliferation rate (%): + (T-cell proliferation rate within the 0-20% range compared to the control group)

CC1CCN(C[C@@H]2C(=O)O[C@H]3[C@H]2CC[C@@]2(C)C[C@]24CC[C@@](C)(O)[C@H]34)CC1 [compound 43]
T-cell proliferation rate (%): + (T-cell proliferation rate within the 0-20% range compared to the control group)

C=C1C(=O)O[C@H]2[C@H]1CCC(C)=C1CC[C@@](C)(OC(=O)NCCN(C)C)[C@@H]12 [compound 77]
T-cell proliferation rate (%): + (T-cell proliferation rate within the 0-20% range compared to the control group)

CN(C)C[C@@H]1C(=O)O[C@H]2[C@H]1CC[C@@]1(C)C[C@]13C[C@@H](O)[C@@](C)(O)[C@H]23 [compound 60]
T-cell proliferation rate (%): + (T-cell proliferation rate within the 0-20% range compared to the control group)
